Values quoted from earlier work, collected in patent US10948221B1 (priority 2020, dated 2021).

System: rat
Conditions: in vivo

Compound | LD50 (oral-rat; mg/kg)
O=N[O-].[Ag+] [AgNO2] | Toxic
CN.Cl [CH3NH3Cl] | 1600 mg/kg
N#C[O-].[K+] [KCNO] | 841 mg/kg
[K+].[O-][Cl+2]([O-])[O-] [KClO3] | 1870 mg/kg
[K+].[O-][Cl+3]([O-])([O-])[O-] [KClO4] | 100 mg/kg
O=N[O-].[K+] [KNO2] | 250 mg/kg
[Na+].[O-][Cl+2]([O-])[O-] [NaClO3] | 1200 mg/kg
[Na+].[O-][Cl+3]([O-])([O-])[O-] [NaClO4] | 2100 mg/kg
[F-].[Na+] [NaF] | 52 mg/kg
O=N[O-].[Na+] [NaNO2] | 180 mg/kg
AgNO3 | Toxic
BaCl2•2H2O | 118 mg/kg
K2SO4 [Solute K2SO4] | 6600 mg/kg
KIO3 | 136 mg/kg
KMnO4 | 1090 mg/kg
MgSO4•7H2O | 2840 mg/kg
NH4NO3 | 2217 mg/kg
Na3PO4 | 7400 mg/kg
